We go through eight substances from patent US6610297B1, “Peptide immunogens for vaccination against and treatment of allergy” (Novartis AG, priority 1996, dated 2003).

Where no end group is shown, it is not given here.

For test [1], the system named is BSW17. The test is described as follows: Recognition of phage-displayed peptides by BSW17 (phage display library screening). It counts as binding. Also noted: key: + + +: +(++), +/− = intensity of recognition by BSW 17; +(++), +/− = intensity of recognition by BSW 17; +(++), +/− = intensity of recognition by BSW 17; + /−: +(++), +/− = intensity of recognition by BSW 17. As to conditions: phage-displayed circular peptides, group A. Here is the method:
Bacteriophage particles specifically recognized by BSW17 are identified by biopanning of phage libraries displaying linear or circular random peptides from 6 to 15 amino acid residues in length fused to phage peptides pIII and pVIII, respectively. For amplification of phage libraries, 2 ml of a liquid culture of E. coli XL-I blue grown in SB medium to OD600=1.0 are incubated with 10^10 phages for 15 minutes at room temperature. 10 ml of SB medium containing […] of tetracycline and 20 μg/ml of carbenicillin are added and 10 μl, 1 μl and 0.1 μl, respectively, are plated on LB plates containing 100 μg/ml of carbenicillin. The culture is incubated at 37° with vigorous shaking for one hour, then 100 ml of SB containing 10 μg/ml of tetracycline and 50 μg/ml of carbenicillin are added and incubation is continued for one hour. 10^12 cfu of VCS M13 helper phage are added. After 2 hours with vigorous shaking at 37°. kanamycin is added to a final concentration of 70 μg/ml and incubation continued overnight. After centrifugation at 4000 g and 4° for 20 minutes, supernatants are mixed with 38 ml of an ice-cold sterile filtered solution of 12% NaCl and 16% PEG 8000, cooled on ice for 30 minutes and centrifuged for 30 minutes at 10000 g at 4°. The phage pellet is solubilized in 2 ml of TBS containing 1.5% casein and stored at 4°. For biopanning, COSTAR® RIA plates (Costar 3690) are coated over-night at 4° with 20 μg/ml of BSW17 in 0.1 M carbonate buffer, pH 9.6, and thereafter blocked with TBS containing 1.5% casein. 2×10^11 cfu of phages are added and incubated at 37° for 2 hours, then washed ten times with PBS/0.1% Tween 20. The wells are rinsed with water and the bound phages eluted with a total of 200 μl of 0.1 M HCl, pH 2.2 for 10 minutes. Eluted phages are neutralized with 2 M Tris base and amplified as described above.
For the selection of positive clones 50 μl of a E. coli XL-I blue liquid culture grown in SB-medium to OD600=1.0 are incubated with 1 μl of a 10^−8 dilution of amplified phages after the 3rd round of panning for 15 minutes at room temperature, then plated on LB plates containing 100 μg/ml of carbenicillin and grown overnight. Colonies are randomly picked and plated on LB plates containing 100 μg/ml of carbenicillin. After 4 hours at 37°, nitrocellulose filters soaked with 10 mM of IPTG are put on top and incubation continued overnight at 32°. Filters are removed and incubated at 37° for 30 minutes in a CHCl3-atmosphere. […]
The nucleotide sequence of the DNA encoding these peptides was determined. […]

The subject of test [2] is BSW17. The test is described as follows: ELISA: binding of mimotope-displaying phage particles to coated BSW17. As to conditions: FIG. 5; phage titer 10^9 cfu/ml; 10 μg coated antibody. Here is the method:
(§1) 10 μg of BSW17 and various monoclonal antibodies are coated to the wells of COSTAR® plates following standard ELISA procedures. After blocking with BSA, the wells are incubated with 100 μl of standard ELISA incubation buffer containing bacteriophage particles obtained from phage-infected bacterial culture supernatants with a phage titer of 10^9 cfu/ml. After washing, the plates are incubated with 5 μg of horseradish peroxidase (HRP)-coupled anti-M13 antiserum (Pharmacia, Uppsala, Sweden) in incubation buffer. All incubations are carried out at room temperature for 1 hour. After final washing, phage particles bound to the coated antibodies are visualized via the bound HRP-anti M13 serum by chromogenic substrate development following standard ELISA procedure. […] As negative non-antibody control, recombinant FcεRI α-chain and as positive control, wells coated with polyclonal anti-M13 antiserum are included.
A general note: ELISA stands for enzyme-linked immunosorbent assay.

For test [3], the system named is 8E7, 3G9, 5H10 (monoclonal anti-Cε3 antibodies) and 5H5/F8 (against human FcεRIα). Nature of the test: ELISA: binding of mimotope-displaying phage particles to other coated monoclonal antibodies. The conditions noted are these: FIG. 5; phage titer 10^9 cfu/ml; 10 μg coated antibody. The method, then: as §1
A further test relates to BSW17/IgE binding. Nature of the test: Competition RIA: binding of 125I-labelled IgE to BSW17 in the presence of phage particles. The conditions noted are these: FIG. 6; for Inhibition of labelled IgE binding to BSW17, equal to non-labelled IgE concentration: 10^11 cfu/ml of phage particles, estimated from standard inhibition curve. Also noted: species or system human. Here is the method:
Bacterial cells are grown in SB containing 10 μg/ml of tetracycline and 50 μg/ml of carbenicillin to OD600=0.4, then VCS M13 helper phage is added and incubation continued for 2 hours at 37°. Then kanamycin is added to a final concentration of 70 μg/ml and incubation continued overnight. Phage particles are precipitated with polyethyleneglycol. Soft RIA plates are coated with 20 μg/ml of BSW17 in 0.1 M carbonate buffer pH 9.6 and then blocked with TBS containing 1.5% casein. Human IgE is ^125I-labelled by the chloramine-T method and 100000 cpm per well are used for binding to BSW17 coated to the RIA plates in the presence of increasing concentrations of non-labelled IgE (standard curve) or phage particles, respectively. All experiments are performed at room temperature and plates are washed 3 times with 0.9% NaCl+0.05% Tween 20, cut in pieces and each well was measured in a γ-counter for 1 minute.
Closed circles show a standard inhibition curve by unlabelled IgE to allow an estimation of inhibition of labeled IgE binding in the presence of 10^11 cfu/ml of phage particles. The inhibition achieved with the phage clones is equal to non-labelled IgE concentrations of 1 μg/ml and 1.7 μg/ml, respectively.

The test system of the next test is human IgE. Nature of the test: Anti-IgE response in rabbits immunized with BSW17 mimotope displaying phage (dot ELISA of serum). The test is classed as in vivo. The conditions noted are these: rabbit serum 1:200 after third boost. The method, then:
To test the feasibility of a BSW17 mimotope-based vaccine approach, rabbits are immunized with phage particles displaying BSW17 mimotope peptides and helper phage VCS M13 as control, respectively. 10^12 cfu of freshly prepared phage particles are dialyzed against PBS at 4°. 1 ml is emulsified with complete Freund's adjuvant for the first immunization, or with 1 ml incomplete Freund's adjuvant for boosting. Immunization is repeated subcutaneously every 14 days. After the third boost, 12 ml of blood are taken, clotted for 4 hours at room temperature in glass vials and centrifuged for 10 minutes at 2000 g. The supernatants are tested for the presence of anti-human IgE antibodies by ELISA. Human IgE from three different individuals (SUS11-IgE; PS-IgE; WT-IgE) is diluted in PBS at a concentration of 50 μg/ml and 1 μl aliquots are dotted onto nitrocellulose. Nitrocellulose is blocked in TBS containing 1.5% casein for 1 hour. Rabbit serum is diluted 1:200 in TBS containing 1.5% casein and incubated overnight. Washing is performed in TBS, TBS-0.05% Tween 20 and TBS for 10 minutes each. Developing goat anti-rabbit-HRP is 1:1.000 diluted in TBS containing 1.5% casein and incubated for 4 hours. Washing and staining is performed as described. […] However, in addition to a massive immune response to the bacteriophage pVIII coat protein, sera of rabbits immunized with BSW17 mimotope phages also contain strongly elevated levels of antibodies which specifically recognize human IgE: […]

In a further test the test system is BSW17/IgE interaction. Nature of the test: Competition ELISA: inhibition of BSW17-HRP/IgE interaction by sera of immunized rabbits. It counts as in vivo, human. The conditions noted are these: rabbit serum 1:50, BSW17-HRP 1:50000. The method, then: After washing, mAb BSW17 labeled with horseradish peroxidase (BSW17-HRP) is added in a 1:50000 dilution in TBS containing 1.5% casein for 4 hours. Subsequent washing and staining is performed as described.

Test [4] has as its system BSW17. Nature of the test: ELISA: recognition of coated mimotope conjugates by BSW17. The test is classed as binding. As to conditions: FIGS. 8a, 8b, 9a, 9b. The method, then:
Microtiter plate wells are coated with 1 μg each of SDS236, SDS237 or free KLH and incubated with increasing concentrations of BSW17. Bound antibody is detected with goat anti-mouse IgG-HRP (gamIgG-HRP). The data shown represents means of duplicates minus background binding to uncoated (BSA-blocked) wells.
FIG. 8b summarizes ELISA data obtained with various BSW17 mimotope conjugates coupled to the carrier protein using several chemical coupling procedures. Microtiter plate wells are coated with 5 μg each of the mimotope conjugates, or free KLH, and incubated with 10 μg of BSW17. Bound antibody is detected with gamIgG-HRP. The data shown represents means of duplicates minus background binding to uncoated (BSA-blocked) wells. In contrast to free KLH, each BSW17 mimotope conjugate is found to be recognized by BSW17.
In FIGS. 9a and 9b it is shown that BSW17 mimotopes coupled to KLH or BSA are specifically recognized by BSW17 and not by the non-related monoclonal antibodies 3G9 (anti-human Cε3) and 5H5/F8 (anti-human RIα). Again, microtiter plate wells are coated with 5 μg each of the mimotope conjugates shown and incubated with 10 μg of the corresponding monoclonal antibody. Bound antibody is detected with gamIgG-HRP. The data shown represents means of duplicates minus background binding to uncoated (BSA-blocked) wells.

The target in a further test is human IgE (human) (UniProt P01854). Nature of the test: cell-based or functional assay.
human IgE (human), sequence (P01854 other isoform, or with tags, fused parts or gaps): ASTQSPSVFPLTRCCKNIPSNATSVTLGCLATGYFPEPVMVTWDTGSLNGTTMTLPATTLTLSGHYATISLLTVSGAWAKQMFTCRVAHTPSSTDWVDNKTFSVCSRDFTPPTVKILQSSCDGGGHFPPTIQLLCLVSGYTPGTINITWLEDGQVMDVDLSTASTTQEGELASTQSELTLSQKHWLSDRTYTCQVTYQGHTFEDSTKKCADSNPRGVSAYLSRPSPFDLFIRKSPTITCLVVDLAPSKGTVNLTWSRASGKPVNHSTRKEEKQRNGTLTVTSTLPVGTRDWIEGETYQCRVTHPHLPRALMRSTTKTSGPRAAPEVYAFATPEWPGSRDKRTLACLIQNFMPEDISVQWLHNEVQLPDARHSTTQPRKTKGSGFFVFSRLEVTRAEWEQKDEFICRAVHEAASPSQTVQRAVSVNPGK

BSW17/IgE interaction, sequence (P01854 1-428 isoform P01854-1): as the sequence (P01854 other isoform, or with tags, fused parts or gaps) above
human IgE, sequence (P01854 1-428 isoform P01854-1): as the sequence (P01854 other isoform, or with tags, fused parts or gaps) above

As for “CINHRGYWVC (cysteine pairing not given here) [PhBSW.29-8]”, the “intensity of recognition by BSW 17” value in the test with BSW17 [1] is “+ + +”. Besides, the “Binding of phage particles to BSW17” value in the test on BSW17 [2] was “very specifically bind to BSW17”. For the same substance, in test [3], the “Binding of phage particles to other antibodies (8E7, 3G9, 5H10, 5H5/F8)” value was “to no other antibodies”. For the same substance, in the test on BSW17/IgE binding, the “Inhibition of the binding of BSW17 to IgE (in words)” value was “inhibit the binding of BSW17 to IgE” and the “Inhibition of labelled IgE binding to BSW17, equal to non-labelled IgE concentration” value is 1.7 µg/mL. For the same substance, in the test with human IgE, the “Recognition of IgE (relative OD) PS-IgE” value is 9.0 ± 0.4 relative OD, the “Recognition of IgE (relative OD) SUS11-IgE” value is 16.5 ± 0.7 relative OD and the “Recognition of IgE (relative OD) WT-IgE” value is on record as 25.0 ± 1.0 relative OD. Moreover, in the test with BSW17/IgE interaction, the “Recognition of different IgE (% inhibition) PS-IgE” value was 48%, the “Recognition of different IgE (% inhibition) SUS11-IgE” value turned out to be 52%, the “Recognition of different IgE (% inhibition) WT-IgE” value worked out at 65% and the “Recognition of different IgE (% inhibition) Zavasal-IgE” value was 47%.
Consider “CRRHNYGFWVC (cysteine pairing not given here) [PhBSW.6-9]”, for which the “intensity of recognition by BSW 17” value in the test on BSW17 [1] is on record as “++”. Further, the “Binding of phage particles to BSW17” value with BSW17 [2] is on record as “very specifically bind to BSW17”. Further, in test [3], the “Binding of phage particles to other antibodies (8E7, 3G9, 5H10, 5H5/F8)” value is “to no other antibodies”. In the test with BSW17/IgE binding, the “Inhibition of the binding of BSW17 to IgE (in words)” value is recorded as “inhibit the binding of BSW17 to IgE” and the “Inhibition of labelled IgE binding to BSW17, equal to non-labelled IgE concentration” value is 1 µg/mL. For the same substance, in the test with human IgE, the “Recognition of IgE (relative OD) PS-IgE” value turned out to be 8.0 ± 0.6 relative OD, the “Recognition of IgE (relative OD) SUS11-IgE” value was 5.0 ± 0.2 relative OD and the “Recognition of IgE (relative OD) WT-IgE” value was found to be 21.0 ± 1.0 relative OD. Also, in the test with BSW17/IgE interaction, the “Recognition of different IgE (% inhibition) PS-IgE” value came to 63%, the “Recognition of different IgE (% inhibition) SUS11-IgE” value is on record as 34%, the “Recognition of different IgE (% inhibition) WT-IgE” value is 65% and the “Recognition of different IgE (% inhibition) Zavasal-IgE” value is on record as 51%.
Turning to “CTRLHTGYWVC (cysteine pairing not given here) [Seq.id.no. 20]”, in the test on BSW17 [1], the “intensity of recognition by BSW 17” value is recorded as “+”.
Same read-out and setting: in the case of “Cys Thr Leu Ser Val Phe Gly Tyr Trp Val Cys (CTLSVFGYWVC; cysteine pairing not given here; also: circular) [Seq.id.no. 21]” it was “+ /−”.
In the case of cyclic GEFCINHRGYWVCGDPA-KLH [SDS236], the “Recognition of conjugate by BSW17” value in the test with BSW17 [4] was “recognized by BSW17 in a dose-dependent manner”.
keyhole limpet hemocyanin [KLH]: in the test on BSW17 [4], the “Recognition of conjugate by BSW17” value was “no binding”.
linear KTKGSGFFVF-KLH [SDS237]: in the test with BSW17 [4], the “Recognition of conjugate by BSW17” value was “recognized by BSW17 in a dose-dependent manner”.
As for monoclonal antibody BSW17, in the test with human IgE (human), the Specific histamine release (%), A: during sensitization with IgE and BSW17; Experiment 1 amounted to 3.6%; the Specific histamine release (%), A: during sensitization with IgE and BSW17; Experiment 2 was 3%; the Specific histamine release (%), A: during sensitization with IgE and BSW17; Experiment 3 was found to be 4.4%; the Specific histamine release (%), B: after triggering with Le27; cells sensitized with IgE and BSW17; Experiment 1 worked out at 3.1%. For the same substance, in the test with human IgE (human), the Specific histamine release (%), B: after triggering with Le27; cells sensitized with IgE and BSW17; Experiment 2 stood at 1.5%; the Specific histamine release (%), B: after triggering with Le27; cells sensitized with IgE and BSW17; Experiment 3 was 0.9%.
